Assay results as given in US20040186166A1, “Cannabinoid analogs as peroxisome proliferator activated nuclear receptor gamma activators” (priority 2002, published 2004).

Tests used:
[1] = animal models; cited from earlier work
human IL-8 promoter = assay: IL-8 promoter luciferase assay, HeLa cells with wild type PPARγ; format: cell-based
Method: (§1) For PPARγ activation assay, HEK293 cells were plated in 12-well cell culture plates and maintained in Dulbecco's modified Eagle's medium (DMEM) supplemented with 10% fetal bovine serum (FBS) at 37° C. under 5% CO2. Cells were changed to phenol red-free DMEM supplemented with 10% charcoal-stripped fetal bovine serum 3 hours before transfection by a standard calcium-phosphate precipitation method. Twelve hours after transfection, the cells were washed with phosphate-buffered saline (PBS) and fed again with fresh medium containing the indicated concentrations of compounds. After 36 hours, cells were harvested for β-galactosidase and luciferase activities as described previously (Li et al., Proc Natl Acad Sci USA 94:8479-84, 1997). The average normalized luciferase activity was determined via triplicate experiments. For IL-8 promoter assay, HeLa cells were maintained and transfected in the same way as described above. After transfection, cells were recovered for 4 hours before treatment with AJA, GW347845, or solvent. After 3-4 hours, cells were treated with or without 25 nM of phorbol myristate acetate (PMA) for 24 hours.
The IL-8 luciferase reporter controlled by the human IL-8 promoter (-97/-69) was cotransfected with mPPARγ or mPPARγ ΔAF2 mutant into HeLa cells. After transfection, cells were treated with AJA, GW347845 or solvent after PMA treatment for 24 hours. This was performed by determining the effect of AJA on IL-8 promoter activity and the role of PPARγ in this process. IL-8 is a biomarker for inflammation, and reduction of IL-8 levels correlates with a decrease in inflammation. The involvement of PPARγ in regulating IL-8 promoter activity was determined by comparing the IL-8 promoter activity in the presence of wild type PPARγ or its ΔAF2 mutant. In the experiment illustrated in FIG. 6A, PMA stimulated IL-8 promoter activity 3 fold, which was set as 100% promoter activity.

PPARγ ΔAF2 mutant = target: T1, PPARγ ΔAF2 mutant (Mus musculus, UniProt P37238); assay: PPRE-Luc reporter assay, AF-2 helix-truncated PPARγ; format: cell-based
T1 construct: introduce a stop codon and a NheI restriction site after amino acid 489; expressed in transfected cells; host or cells: HEK293
T1 sequence (P37238 1-459 isoform P37238-2): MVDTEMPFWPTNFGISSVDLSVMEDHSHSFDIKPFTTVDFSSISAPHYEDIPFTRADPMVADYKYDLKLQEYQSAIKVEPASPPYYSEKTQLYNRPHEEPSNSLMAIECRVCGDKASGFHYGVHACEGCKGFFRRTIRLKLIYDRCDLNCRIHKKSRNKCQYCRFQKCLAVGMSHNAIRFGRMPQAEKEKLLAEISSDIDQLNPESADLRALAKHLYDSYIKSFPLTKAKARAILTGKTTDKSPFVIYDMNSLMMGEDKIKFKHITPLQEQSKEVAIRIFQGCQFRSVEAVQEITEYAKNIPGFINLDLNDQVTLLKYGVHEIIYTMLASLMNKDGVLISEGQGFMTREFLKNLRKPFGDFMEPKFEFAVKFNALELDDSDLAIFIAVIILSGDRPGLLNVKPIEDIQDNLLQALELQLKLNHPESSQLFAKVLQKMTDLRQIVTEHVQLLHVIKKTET
From the text: The-pCMX-Gal4-mPPARγ1 was constructed by fusing the mPPARγ1 coding sequence to the yeast GAL4 DNA binding domain (amino acid 1-147) in the pCMX vector. The AF-2 helix-truncated mutant of mPPARγ1 (PPARγ ΔAF2) was generated by PCR amplification-to introduce a stop codon and a NheI restriction site after amino acid 489, and then-subcloned into the pCMX vector. The PPRE-TK-LUC, MH100-TK-LUC-and DR1-TK-LUC reporters have been described previously (Forman et al., Cell 83:803-812, 1995; Umesono et al., Cell 65:1255-1266, 1991).
as §1, with “For IL-8 promoter assay, HeLa cells were maintained and transfected in the same way as described above. After transfection, cells were recovered for 4 hours before treatment with AJA, GW347845, or solvent. After 3-4 hours, cells were treated with or without 25 nM of phorbol myristate acetate (PMA) for 24 hours.” left out

human PPARγ = target: T2, human PPARγ (Homo sapiens, UniProt P37231); assay: Gal4-dependent MH100-Luc reporter, human PPARγ; format: cell-based; details: compared with mouse PPARγ
T2 construct: The Gal4-hPPAR LBD constructs were obtained from GlaxoSmithKline; host or cells: HEK293
T2 sequence (P37231 238-503 limits assumed): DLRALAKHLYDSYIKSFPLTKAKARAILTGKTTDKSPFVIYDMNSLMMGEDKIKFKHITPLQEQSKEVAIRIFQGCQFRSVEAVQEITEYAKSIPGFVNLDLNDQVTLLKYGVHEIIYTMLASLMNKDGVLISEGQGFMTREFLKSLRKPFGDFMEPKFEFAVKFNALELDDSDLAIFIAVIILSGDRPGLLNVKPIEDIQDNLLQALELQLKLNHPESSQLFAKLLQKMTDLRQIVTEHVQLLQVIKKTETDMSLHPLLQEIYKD
Method: The pGEX-DRIP205 (527˜970) was obtained from the Sloan-Kettering Cancer Center. The Gal4-hPPAR LBD constructs were obtained from GlaxoSmithKline, Research Triangle Park, NC. The IL8-Luciferase reporter was obtained from Celgene, San Diego, Calif. The plasmids mPPARα, mPPARγ1, mPPARδ , and hRXRα were in the pCMX vector (Umesono et al., Cell 65:1255-1266, 1991).
For PPARγ activation assay, HEK293 cells were plated in 12-well cell culture plates and maintained in Dulbecco's modified Eagle's medium (DMEM) supplemented with 10% fetal bovine serum (FBS) at 37° C. under 5% CO2. […] The average normalized luciferase activity was determined via triplicate experiments. […]
To further confirm activation of PPARγ by AJA, and also to determine PPARγ species specificity, the ability of AJA to activate the chimeric Gal4-DBD/PPAR fusion proteins on a Gal4-dependent MH100-Luc reporter was assessed (FIG. 4A). The PPARs were expressed as Gal4 DBD fusion proteins, which bind to the UAS promoter containing 4 copies of a synthetic Gal4 binding site upstream of the minimal thymidine kinase (TK) promoter. […] Transfected cells were treated with increasing concentrations of AJA from 10-60 μM and the luciferase activities were determined in triplicate experiments. […]

CCCCCCC(C)(C)c1cc(O)c2c(c1)OC(C)(C)[C@@H]1CC=C(C(=O)O)C[C@@H]21 [AJA, dimethylheptyl-THC-11-oic acid]
psychoactivity [1]: does not show the typical psychoactive effect
reduction of PMA-stimulated IL-8 promoter activity (human IL-8 promoter; 20 μM, HeLa cells): about 40%
significance of the reduction of IL-8 promoter activity (human IL-8 promoter; 10 and 20 μM AJA): statistically significant
activation of PPRE-Luc reporter through PPARγ ΔAF2 mutant (PPARγ ΔAF2 mutant): failed to activate expression of the reporter gene
activation of human PPARγ (human PPARγ): activates human PPARγ as efficiently as mouse PPARγ
